Several values for one entry are separate records, joined by “and”; a condition that tells them apart may be missing. Equal entries are not always repeated.
Legend:
[1] = test system: Cyper. escul.; assay: preemergence treatment in the greenhouse, % damage; format: in vivo, Cyperus esculentus
From the text: (§1) The vessels employed were plastic flowerpots having a volume of 300 cm^3; the substrate was a sandy loam containing about 1.5% humus. The seeds of the test plants (see Table 1) were sown shallow, and separated according to species. In the case of Cyperus esculentus, pregerminated tubers were planted. In the preemergence treatment, the active ingredients were then immediately applied to the surface of the soil. They were suspended or emulsified in water as the vehicle, and sprayed through atomizing nozzles. After the agents had been applied, the vessels were lightly sprinkler-irrigated to set germination and growth going, and to activate the chemical agents. The vessels were then covered with transparent plastic hoods until the plants had taken root. This cover ensured uniform germination of the test plants (to the extent that this was not impaired by the chemicals), and prevented readily volatile substances from evaporating.
(§2) For postemergence treatment, the plants were first grown to a height of from 3 to 10 cm, depending on their habit, before treated. Hoods were not placed on the pots. The experiments were set up in the greenhouse, hotter areas (25° to 40° C.) being preferred for heat-loving species, and 15° to 30° C. for plants from moderate climates. The experiments were carried out for from 4 to 6 weeks. During this period the plants were tended and their reaction to the various treatments was assessed. The following tables contain the substances investigated, the application rates in kg/ha of active ingredient, and the test plant species. Assessments were made on a 0 to 100 scale, 0 denoting no damage or normal emergence, and 100 denoting no emergence or complete destruction of at least the visible plant parts.

[2] = test system: Glyc. max; assay: preemergence application in the open, % damage; format: in vivo, Glycine max
Method: (§3) The experiments were carried out on small plots. The soil was a sandy loam having a pH of from 5 to 6 and containing from 1 to 1.5% humus. The treatment was preemergence, the active ingredients being applied immediately or at the latest 3 days after sowing. The crop plants were sown in rows. The weed flora was made up of the most widely varying species and was natural; the weed flora depended on the time of the year and in part on the crop (e.g., spring-germinating, summer-germinating). The substances were emulsified or suspended in water as the vehicle, and applied by means of a motor-driven plot spray mounted on a hitch. When no rain fell, the plots were watered to ensure germination and growth of the crop plants and weeds. All the experiments were run for several weeks. Over this period, assessments were made at certain intervals on the 0 to 100 scale.

[3] = test system: Cyper. escul.; assay: postemergence application in the greenhouse, % damage; format: in vivo, Cyperus esculentus
From the text: as §1, §2

[4] = test system: Stell. med.; assay: as above; format: in vivo
From the text: as §1, §2

[5] = test system: Setaria spp.; assay: as above; format: in vivo
From the text: as §1, §2

[6] = test system: Chrys. seget.; assay: as above; format: in vivo
From the text: as §1, §2

[7] = test system: Alopec. myosur.; assay: as above; format: in vivo
From the text: as §1, §2

[8] = test system: Avena fat.; assay: as above; format: in vivo
From the text: as §1, §2

[9] = test system: Matric. spp.; assay: as above; format: in vivo
From the text: as §1, §2

[10] = test system: Sorgh. bicol.; assay: preemergence treatment in the greenhouse, % damage; format: in vivo, Sorghum bicolor
From the text: as §1, §2

[11] = test system: Echin. c.g.; assay: preemergence application in the open, % damage; format: in vivo
Method: as §3

[12] = test system: Amar. retro.; assay: preemergence application in the open, % damage; format: in vivo; details: 1,0 kg/ha
Method: as §3

[13] = test system: Alopec. myosur.; assay: preemergence application in the open, % damage; format: in vivo; details: 2.0 kg/ha
Method: as §3

[14] = test system: Chenop. spp.; assay: preemergence application in the open, % damage; format: in vivo
Method: as §3

[15] = test system: Anth./Matric.; assay: preemergence application in the open, % damage; format: in vivo; details: 2.0 kg/ha
Method: as §3

[16] = test system: Galins. spp.; assay: preemergence application in the open, % damage; format: in vivo
Method: as §3

[17] = test system: Stellaria media; assay: preemergence application in the open, % damage; format: in vivo; details: 2.0 kg/ha
Method: as §3

[18] = test system: Brassica napus; assay: preemergence application in the open, % damage; format: in vivo; details: 2.0 kg/ha
Method: as §3

[19] = test system: Gossyp. hirs.; assay: preemergence treatment in the greenhouse, % damage; format: in vivo, Gosspyium hirsutum
Summary of the method: (§4)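 Plants in humus-poor sandy loam (~1.5%) received kg/ha doses of active as aqueous spray. Preemergence sprays preceded irrigation and hooding until rooting; postemergence sprays, without hoods, hit 3–10 cm plants. Injury was assessed 0–100 across 4–6 weeks.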

[20] = test system: Glyc. max; assay: preemergence treatment in the greenhouse, % damage; format: in vivo, Glycine max; details: 0.25 kg/ha
Summary of the method: as §4

[21] = test system: Euph. gen.; assay: preemergence treatment in the greenhouse, % damage; format: in vivo
Summary of the method: as §4

[22] = test system: Sorgh. halep.; assay: preemergence treatment in the greenhouse, % damage; format: in vivo
Summary of the method: as §4

[23] = test system: Stell. med.; assay: preemergence treatment in the greenhouse, % damage; format: in vivo
Summary of the method: as §4

[24] = test system: Cyp. diff.; assay: preemergence treatment in the greenhouse, % damage; format: in vivo
Summary of the method: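 Greenhouse herbicide test at rates in kg/ha a.i. Pre-em soil spray right after sowing, then irrigation and hooding; post-em on 3–10 cm plants. Rated 0–100 over 4–6 weeks.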

[25] = test system: Echin. c.g.; assay: preemergence treatment in the greenhouse, % damage; format: in vivo
Summary of the method: as §4

[26] = test system: Setaria spp.; assay: preemergence treatment in the greenhouse, % damage; format: in vivo
Summary of the method: as §4

[27] = test system: Amar. retro.; assay: preemergence treatment in the greenhouse, % damage; format: in vivo
Summary of the method: as §4

[28] = test system: Chrys. seget.; assay: preemergence treatment in the greenhouse, % damage; format: in vivo
Summary of the method: as §4

[29] = test system: Alopec. myosur.; assay: preemergence treatment in the greenhouse, % damage; format: in vivo
Summary of the method: as §4

[30] = test system: Solanum nigrum; assay: preemergence treatment in the greenhouse, % damage; format: in vivo
Summary of the method: as §4

[31] = test system: Zea mays; assay: preemergence treatment in the greenhouse, % damage; format: in vivo
Summary of the method: as §4

[32] = test system: Poa annua; assay: preemergence treatment in the greenhouse, % damage; format: in vivo
Summary of the method: as §4

[33] = test system: Bromus spp.; assay: preemergence treatment in the greenhouse, % damage; format: in vivo
Summary of the method: as §4

[34] = test system: Matric. spp.; assay: preemergence treatment in the greenhouse, % damage; format: in vivo
Summary of the method: as §4

[35] = one value printed for two rates (0.25 0.5 kg/ha)

CCc1cccc(CC)c1N(COC)C(=O)CCl [prior art, 2-chloro-2',6'-diethyl-N-methoxymethyl-acetanilide, reference compound]
% damage ([1]; 0.5 kg/ha): 40%
% damage ([1]; 1.0 kg/ha): 50%
% damage ([1]; 2.0 kg/ha): 60%
% damage ([2]; 0,1 kg/ha): 0%
% damage ([2]; 1,0 kg/ha): 0%
% damage ([3]; 1.0 kg/ha): 42%
% damage ([3]; 2.0 kg/ha): 55%
% damage ([4]; 1.0 kg/ha): 0%
% damage ([4]; 2.0 kg/ha): 30%
% damage ([5]; 1.0 kg/ha): 68%
% damage ([5]; 2.0 kg/ha): 68%
% damage ([6]; 1.0 kg/ha): 15%
% damage ([6]; 2.0 kg/ha): 15%
% damage ([7]; 1.0 kg/ha): 60%
% damage ([7]; 2.0 kg/ha): 60%
% damage ([8]; 1.0 kg/ha): 50%
% damage ([8]; 2.0 kg/ha): 70%
% damage ([9]; 1.0 kg/ha): 50%
% damage ([9]; 2.0 kg/ha): 50%
% damage ([10]; 1.0 kg/ha): 0%
% damage ([10]; 2.0 kg/ha): 0%
% damage ([11]; 0,1 kg/ha): 65%
% damage ([11]; 1,0 kg/ha): 73%
% damage [12]: 80%
% damage [13]: 65%
% damage ([14]; 0,1 kg/ha): 10%
% damage ([14]; 1,0 kg/ha): 13%
% damage [15]: 53%
% damage ([16]; 0,1 kg/ha): 30%
% damage ([16]; 1,0 kg/ha): 55%
% damage [17]: 15%
% damage [18]: 5%
% damage ([19]; 0.25 kg/ha): 0%
% damage ([19]; 0.5 kg/ha): 0%
% damage ([19]; 1.0 kg/ha): 20% and 10%
% damage ([19]; 2.0 kg/ha): 40%
% damage [20]: 10%
% damage ([21]; 0.5 kg/ha): 25% and 20% and 30%
% damage ([21]; 1.0 kg/ha): 45% and 50%
% damage ([21]; 2.0 kg/ha): 100%
% damage ([22]; 0.125 kg/ha): 40%
% damage ([22]; 0.25 kg/ha): 38% and 50% and 30%
% damage ([22]; 0.5 kg/ha): 50% and 40%
% damage ([22]; 1.0 kg/ha): 70%
% damage ([23]; 0.25 kg/ha): 20%
% damage ([23]; 0.5 kg/ha): 70%
% damage ([23]; 1.0 kg/ha): 70%
% damage ([24]; 0.125 kg/ha): 65%
% damage ([24]; 0.25 kg/ha): 70% and 100%
% damage ([24]; 0.5 kg/ha): 100%
% damage ([24]; 1.0 kg/ha): 100%
% damage [24, 35]: 65%
% damage ([25]; 0.25 kg/ha): 95%
% damage ([25]; 0.5 kg/ha): 65% and 100%
% damage ([25]; 2.0 kg/ha): 95% and 90%
% damage ([26]; 0.25 kg/ha): 70%
% damage ([26]; 0.5 kg/ha): 60% and 90%
% damage ([26]; 1.0 kg/ha): 90% and 95% and 100%
% damage ([26]; 2.0 kg/ha): 100%
% damage ([27]; 0.25 kg/ha): 72% and 80%
% damage ([27]; 0.5 kg/ha): 100% and 80%
% damage ([27]; 2.0 kg/ha): 100% and 50%
% damage [27, 35]: 75%
% damage ([28]; 0.25 kg/ha): 30%
% damage ([28]; 0.5 kg/ha): 0%
% damage ([29]; 0.25 kg/ha): 40%
% damage ([29]; 0.5 kg/ha): 80%
% damage ([29]; 1.0 kg/ha): 80%
% damage ([30]; 0.25 kg/ha): 50%
% damage ([30]; 0.5 kg/ha): 80% and 95%
% damage ([30]; 1.0 kg/ha): 100%
% damage ([30]; 2.0 kg/ha): 100%
% damage ([31]; 1.0 kg/ha): 0%
% damage ([31]; 2.0 kg/ha): 0%
% damage ([32]; 0.125 kg/ha): 80%
% damage ([32]; 0.5 kg/ha): 15%
% damage ([33]; 0.125 kg/ha): 50%
% damage ([33]; 0.25 kg/ha): 80% and 88%
% damage ([33]; 0.5 kg/ha): 90%
% damage ([33]; 1.0 kg/ha): 50%
% damage ([33]; 2.0 kg/ha): 70%
% damage ([34]; 0.25 kg/ha): 50%
% damage ([34]; 0.5 kg/ha): 80%
% damage ([34]; 1.0 kg/ha): 90%

From US4593104A, “2-halo-N-(azole-1-yl-methyl)-substituted acetanilides” (BASF Aktiengesellschaft, priority 1976, dated 1986)
